Experimental data as given in publication PMC11678426, “Phytochemical Study and In Vitro Antioxidant Activity of Helianthemum cinereum Along with Antitumor Activity of the Isolated trans-Tiliroside and Luteolin 4′-O-β-Xyloside” (Molecules, 2024).
Several values for one entry are separate records, joined by “and”; a condition that tells them apart may be missing. Identical values can stand only once.

How the values were obtained:
[1] = tested on: Mia PaCa-2 pancreatic cancer cell line; test: Cell viability by MTT assay, Mia PaCa-2; type: cell-based; settings: Mia PaCa-2, MTT; for IC50: Homo sapiens, 72 h exposure
Experimental: (§1) The immortalized human keratinocytes HaCaT cells were obtained from Cell Lines Services (Eppelheim, Germany). The A549 cell lines were acquired from the European Collection of Authenticated Cell Cultures (ECACC) and supplied by Sigma-Aldrich (St. Louis, MO, USA), the A375 cell lines were acquired from ATCC and supplied by LGC Standards (Barcelona, Spain), and Mia PaCa-2 and Panc-1 cell lines were kindly provided by Dr. Sónia Melo […], Porto, Portugal). […] Cells were cultured at 5% CO2 and at 37 °C. A stock solution was made by dissolving trans-tiliroside or luteolin 4'-O-β-xyloside in dimethyl sulfoxide (DMSO, Sigma-Aldrich, St. Louis, MO, USA). All cell lines were seeded in 96-well plates at a density of 12,500 cells/mL and incubated for 24 h for adhesion. […] After the exposure, cell viability was assessed by 3-(4,5-dimethyl-2-thiazolyl)-2,5-diphenyl-2H-tetrazolium bromide (MTT, Sigma-Aldrich, St. Louis, MO, USA) assay. Briefly, the exposure medium was replaced by fresh medium and 50 μL of MTT (1.0 mg/mL dissolved in phosphate-buffered saline, PBS, PAN-Biotech, Aidenbach, Germany) and plates were incubated for 3 h. Then, the medium was removed and 150 μL of DMSO was added and plates were shaken in the dark for 1 h. The absorbance was read in a microplate reader BioTek Synergy HT plate reader at 570 nm. Cells with only medium without compounds were used as control. Three independent assays were completed with three replicates each. Cell viability was further calculated using the Equation (3):(3) Cell Viability % of control=Sample Absorbance-Blank Absorbance/Control Absorbance-Blank Absorbance×100

[2] = tested on: A375 melanoma cell line; test: Cell viability by MTT assay, A375; type: cell-based; settings: for concentrations giving significant decrease in cell viability: 72 h
Experimental: as §1

[3] = design: method as in doi:10.3390/app7040400; settings: cited from earlier work
[4] = tested on: IL-5; design: method as in PMID 10418337; settings: from Kummerowia striata; cited from earlier work
[5] = DPPH radical scavenging capacity
Experimental: Different concentrations of H. cinereum extract were prepared in methanol and aliquots of 100 μL were added to 3.5 mL of DPPH (Sigma-Aldrich, Steinheim, Germany) solution (30 μg/g in methanol). A blank consisting of DPPH solution without extract was prepared. All samples were kept in darkness for 15 min. Then, the absorbance was measured against a blank (Methanol) at 515 nm in a UV-Vis spectrophotometer (UV 1700, Shimadzu, Japan). The DPPH solution was daily prepared and the concentration was checked using a calibration curve obtained by preparation of serial concentrations (4, 8, 16, 32 and 64 μg/g). […] The obtained IC50 value is inversely proportional to the antioxidant activity.

[6] = ABTS radical scavenging assay
Experimental: The ABTS radical scavenging activity of H. cinereum extracts was assessed according to the method described by. Firstly, 1 mL of ABTS (Sigma-Aldrich, Steinheim, Germany) stock solution (7 mM) was mixed with 88 μL of potassium persulfate solution (140 mM) and kept overnight protected from light and at room temperature. Next, the mixture was diluted with potassium buffer saline (0.2 M, pH 7.4) to obtain an ABTS solution with an absorbance of 0.70 ± 0.02 at 734 nm. […] The reaction took place in the dark for 6 min, and the absorbance at 734 nm was measured. Samples containing the same volume of methanol and the same dilution of ascorbic acid served as white and positive controls, respectively. […] A2 is the solvent and sample mixture absorbance and A0 is the absorbance of the solvent and ABTS radical mixture.

[7] = tested on: Panc-1 pancreatic cancer cell line; test: Cell viability by MTT assay, Panc-1; type: cell-based; settings: Panc-1, MTT
Experimental: as §1, with “Then, the medium was removed and 150 μL of DMSO was added and plates were shaken in the dark for 1 h.” left out, “Cells with only medium without compounds were used as control. Three independent assays were completed with three replicates each.” left out

[8] = tested on: A549 lung cancer cell line; test: Cell viability by MTT assay, A549; type: cell-based
Experimental: as §1, with “Then, the medium was removed and 150 μL of DMSO was added and plates were shaken in the dark for 1 h.” left out, “Cells with only medium without compounds were used as control. Three independent assays were completed with three replicates each.” left out

[9] = tested on: immortalized human keratinocytes HaCaT; test: Cell viability by MTT assay, HaCaT; type: cell-based; settings: 72 h exposure
Experimental: as §1, with “Then, the medium was removed and 150 μL of DMSO was added and plates were shaken in the dark for 1 h.” left out, “Cells with only medium without compounds were used as control. Three independent assays were completed with three replicates each.” left out

[10] = tested on: Mia PaCa-2 cells; test: Cell cycle analysis by flow cytometry, Mia PaCa-2; type: cell-based; settings: Mia PaCa-2, IC50 concentration (46.2 μM), 72 h
Experimental: (§2) Cells were seeded in 12-well plates as described before. […] Then, cells were collected, washed with PBS, fixed with 85% ethanol and stored at −20 °C until analysis. For analysis, cells were washed, resuspended in PBS and filtered to Eppendorf tubes. Samples were incubated with 50 μL of RNAse (Sigma-Aldrich, St. Louis, MO, USA) for 10 min and next with 50 μL of propidium iodide (PI, ≥94%; Sigma-Aldrich, St. Louis, MO, USA) for 20 min. Cells were analyzed with an Attune® Acoustic Focusing Cytometer (Applied Biosystems, Termo Fischer Scientific, Agawam, MA, USA) and the percentages of cells at each phase of the cell cycle were determined using the FlowJo software V10.7.1 (FlowJo LLC, Ashland, OR, USA). Two independent assays with two replicates each were performed, with at least 5000 events.

[11] = tested on: Panc-1 cells; test: Cell cycle analysis by flow cytometry, Panc-1; type: cell-based; settings: Panc-1, IC50 concentration (54 μM), 72 h
Experimental: as §2

[12] = tested on: A549 cells; test: Cell cycle analysis by flow cytometry, A549; type: cell-based; settings: A549, IC50 concentration (108 μM), 72 h
Experimental: as §2

[13] = tested on: A375 cells; test: Cell cycle analysis by flow cytometry, A375; type: cell-based; settings: A375, IC50 concentration (102 μM), 72 h
Experimental: as §2

[14] = tested on: HaCaT cells; test: Cell cycle analysis by flow cytometry, HaCaT; type: cell-based, human; settings: IC50 concentration (122 μM), 72 h
Experimental: as §2

[15] = tested on: Panc-1 cells; design: method as in PMID 38412575; settings: 72 h of exposure; read-out: IC50 growth of Panc-1 cells; cited from earlier work
[16] = tested on: B16-F10 cells, melanoma cell line; design: method as in earlier work; settings: 168 μM, 72 h; ref 41 (Lu et al. 2009); cited from earlier work
[17] = tested on: A549 cell line; design: method as in PMID 20589534, PMID 29393891; settings: cited from earlier work
[18] = tested on: pancreatic cancer cell lines; design: method as in PMID 26527884; settings: cited from earlier work

O=c1cc(-c2ccc(OC3OCC(O)C(O)C3O)c(O)c2)oc2cc(O)cc(O)c12 (stereo not drawn) [Luteolin 4′-O-β-xyloside, luteolin 4′-O-β-xyloside]
IC50 [1]: 229 ± 9.09 µM
concentrations giving significant decrease in cell viability [2]: up to 75 μM

COc1cc2c(=O)oc3c(OC)c(OS(=O)(=O)O)cc4c(=O)oc(c1OC)c2c34 [Compound 12, 3,3′,4′-tri-O-methyl-ellagic acid 4-sulfate]
cytotoxic effect [3]: cytotoxic effect

O=c1cc(-c2ccc(OC3OC(CO)C(O)C(O)C3O)c(O)c2)oc2cc(O)cc(O)c12 (stereo not drawn) [Luteolin 4′-O-glucoside, luteolin 4′-O-β-glucoside]
IL-5 inhibition [4]: IL-5 inhibitor

Cc1c(C)c2c(c(C)c1O)CCC(C)(C(=O)O)O2 (centres unmarked) [Trolox]
DPPH (IC50) [5]: 12 ± 0.41 µg/mL
ABTS (IC50) [6]: 23.2 ± 0.54 µg/mL

O=C1O[C@H]([C@@H](O)CO)C(O)=C1O [Ascorbic acid]
DPPH (IC50) [5]: 3.36 ± 0.13 µg/g

O=C(/C=C/c1ccc(O)cc1)OC[C@H]1O[C@@H](Oc2c(-c3ccc(O)cc3)oc3cc(O)cc(O)c3c2=O)[C@H](O)[C@@H](O)[C@@H]1O [trans-tiliroside, kaempferol-3-O-[6″-O-(E)-p-coumaroyl]-β-D-glucoside]
IC50 [1]: 46.2 ± 0.89 µM
concentrations affecting cell viability ([1]; 72 h): ≥ 50 µM
IC50 ([7]; Homo sapiens, 72 h exposure): 54 ± 1.95 µM
concentration causing decline of cell viability ([7]; 72 h): 10 µM
concentrations giving significant decrease in cell viability ([8]; 72 h): ≥ 75 µM
IC50 ([8]; Homo sapiens, 72 h exposure): 108 ± 2.8 µM
concentrations giving significant decrease in cell viability [2]: ≥ 75 µM
IC50 ([2]; Homo sapiens, A-375, 72 h exposure): 102 ± 2.56 µM
IC50 [9]: 122 ± 1.8 µM
increase of cells at G2/M phase compared to the control [10]: 3.9%
increase of cells at the S phase compared to the control [10]: 5.6%
effect on cell cycle dynamics [11]: no alterations on the cell cycle dynamics
effect on cell cycle dynamics [12]: no alterations on the cell cycle dynamics
effect on cell cycle dynamics [13]: no alterations on the cell cycle dynamics
effect on cell cycle dynamics [14]: no alterations on the cell cycle dynamics
IC50 [15]: 68.5 µM
decline in the viability of B16-F10 cells [16]: 80%

O=c1cc(-c2ccc(O)c(O)c2)oc2cc(O)cc(O)c12 [luteolin aglycone, luteolin]
IC50 [17]: 32.6 µM and 40 µM
concentrations strongly affecting pancreatic cancer cell lines [18]: above 160 μM
